Numbers after ± are expanded uncertainties.
Assay: activity coefficient (dimensionless); of the first substance listed, at infinite dilution; xn = mol fraction of the nth substance listed
Conditions: 101.33 kPa, Liquid, Chromatography, x1 = 0

Row | Compound | activity coefficient (313.1 K) | activity coefficient (333.1 K) | activity coefficient (353.1 K)
1 | Cc1ccccc1C [1,2-dimethylbenzene] + CCCC[N+]1(C)CCCC1.O=S(=O)([N-]S(=O)(=O)C(F)(F)F)C(F)(F)F | 1.57 ± 0.06 | 1.59 ± 0.06 | 1.61 ± 0.06
2 | CCCCCC [hexane] + CCCC[N+]1(C)CCCC1.O=S(=O)([N-]S(=O)(=O)C(F)(F)F)C(F)(F)F | 12.6 ± 0.58 | 10.2 ± 0.47 | 9.5 ± 0.44
3 | CC1CCCCC1 [methylcyclohexane] + CCCCn1cc[n+](C)c1.F[B-](F)(F)F | 45.7 ± 2.1 | 40.5 ± 1.9 | 35.5 ± 1.6
4 | CCCCCC [hexane] + CCCCn1cc[n+](C)c1.F[B-](F)(F)F | 56.7 ± 2.6 | 47.8 ± 2.2 | 45.2 ± 2.1
5 | CCCCCCC [heptane] + CCCC[n+]1ccc(C)cc1.F[B-](F)(F)F | 84.8 ± 4 | 73.7 ± 3.5 | 67.4 ± 3.1
6 | CC1CCCCC1 [methylcyclohexane] + CCCC[N+]1(C)CCCC1.O=S(=O)([N-]S(=O)(=O)C(F)(F)F)C(F)(F)F | 8.53 ± 0.39 | 7.52 ± 0.34 | 6.76 ± 0.31
7 | CCCCCCC [heptane] + CCCC[N+]1(C)CCCC1.O=S(=O)([N-]S(=O)(=O)C(F)(F)F)C(F)(F)F | 17 ± 0.79 | 15.3 ± 0.71 | 13.6 ± 0.62
8 | CCCCCC [hexane] + CCCC[n+]1ccc(C)cc1.F[B-](F)(F)F | 59.8 ± 2.8 | 52.4 ± 2.4 | 49 ± 2.3
9 | Cc1ccccc1C [1,2-dimethylbenzene] + CCCC[n+]1ccc(C)cc1.F[B-](F)(F)F | 4.48 ± 0.2 | 4.55 ± 0.21 | 4.59 ± 0.21
10 | Cc1ccccc1C [1,2-dimethylbenzene] + CCCCn1cc[n+](C)c1.F[B-](F)(F)F | 4.55 ± 0.21 | 4.51 ± 0.21 | 4.49 ± 0.2
11 | CCCCCCCCCC [decane] + CCCC[N+]1(C)CCCC1.O=S(=O)([N-]S(=O)(=O)C(F)(F)F)C(F)(F)F | 50.1 ± 2.3 | 45.3 ± 2.1 | 40.6 ± 1.9
12 | CCCCCCCC [octane] + CCCC[n+]1ccc(C)cc1.F[B-](F)(F)F | 130 ± 6.1 | 107 ± 5 | 99.8 ± 4.7
13 | CC1CCCC1 [methylcyclopentane] + CCCC[n+]1ccc(C)cc1.F[B-](F)(F)F | 31.3 ± 1.4 | 26.4 ± 1.2 | 25.8 ± 1.2
14 | Cc1ccccc1 [toluene] + CCCCn1cc[n+](C)c1.F[B-](F)(F)F | 3.28 ± 0.15 | 3.33 ± 0.15 | 3.4 ± 0.15
15 | CCCCCCCCCC [decane] + CCCCn1cc[n+](C)c1.F[B-](F)(F)F | 177 ± 8.4 | 144 ± 6.8 | 125 ± 5.9
16 | CCCCCCCCCC [decane] + CCCC[n+]1ccc(C)cc1.F[B-](F)(F)F | 306 ± 14 | 234 ± 11 | 223 ± 11
17 | Cc1ccccc1 [toluene] + CCCC[n+]1ccc(C)cc1.F[B-](F)(F)F | 2.66 ± 0.12 | 2.69 ± 0.12 | 2.73 ± 0.12
18 | CCCCCCCC [octane] + CCCCn1cc[n+](C)c1.F[B-](F)(F)F | 92.2 ± 4.3 | 83.7 ± 3.9 | 72.4 ± 3.4
19 | CCCCCCCCC [nonane] + CCCC[n+]1ccc(C)cc1.F[B-](F)(F)F | 182 ± 8.6 | 153 ± 7.2 | 131 ± 6.2
20 | CC1CCCC1 [methylcyclopentane] + CCCCn1cc[n+](C)c1.F[B-](F)(F)F | 35.6 ± 1.7 | 30.6 ± 1.4 | 28.8 ± 1.3
21 | CCCCCCC [heptane] + CCCCn1cc[n+](C)c1.F[B-](F)(F)F | 78.7 ± 3.7 | 69 ± 3.2 | 62.2 ± 2.9
22 | CCCCCCCCC [nonane] + CCCC[N+]1(C)CCCC1.O=S(=O)([N-]S(=O)(=O)C(F)(F)F)C(F)(F)F | 33.1 ± 1.5 | 29.2 ± 1.4 | 26.8 ± 1.2
23 | CC1CCCCC1 [methylcyclohexane] + CCCC[n+]1ccc(C)cc1.F[B-](F)(F)F | 41.5 ± 1.9 | 34.8 ± 1.6 | 33.1 ± 1.5
24 | CC1CCCC1 [methylcyclopentane] + CCCC[N+]1(C)CCCC1.O=S(=O)([N-]S(=O)(=O)C(F)(F)F)C(F)(F)F | 10.3 ± 0.47 | 9.08 ± 0.42 | 8.11 ± 0.37
25 | CCCCCCCC [octane] + CCCC[N+]1(C)CCCC1.O=S(=O)([N-]S(=O)(=O)C(F)(F)F)C(F)(F)F | 23.7 ± 1.1 | 20.8 ± 0.96 | 19.1 ± 0.88
26 | Cc1ccccc1 [toluene] + CCCC[N+]1(C)CCCC1.O=S(=O)([N-]S(=O)(=O)C(F)(F)F)C(F)(F)F | 1.22 ± 0.04 | 1.29 ± 0.04 | 1.37 ± 0.05

— the NIST ThermoML archive (doi:10.1021/acs.jced.9b00170)
